Measurements: patent US20140309192A1, “MODULATORS OF THE G PROTEIN-COUPLED MAS RECEPTOR AND THE TREATMENT OF DISORDERS RELATED THERETO” (ARENA PHARMACEUTICALS, INC., priority 2011, published 2014)

What was measured:
[1] = target: T1, rat Mas receptor (Rattus norvegicus, UniProt P12526); assay: cAMP Dynamic2 HTRF assay, HEK293 cells stably expressing rat Mas receptor; assay type: cell-based; conditions: forskolin stimulated cAMP, means ± SEM, NR = No Response, read-out: Gi/cAMP IC50
T1 construct: expressed in transfected cells; host or cells: HEK293 (ATCC CRL-1573)
T1 sequence (P12526 1-324): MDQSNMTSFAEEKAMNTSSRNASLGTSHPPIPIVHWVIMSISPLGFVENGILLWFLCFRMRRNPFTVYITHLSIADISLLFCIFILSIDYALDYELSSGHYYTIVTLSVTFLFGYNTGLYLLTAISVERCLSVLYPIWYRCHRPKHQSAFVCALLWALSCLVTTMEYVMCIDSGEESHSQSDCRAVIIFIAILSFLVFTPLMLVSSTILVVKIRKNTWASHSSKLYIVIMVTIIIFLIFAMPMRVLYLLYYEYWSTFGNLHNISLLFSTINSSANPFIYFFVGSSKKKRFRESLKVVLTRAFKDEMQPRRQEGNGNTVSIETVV
Method: cAMP accumulation in HEK293 cells stably expressing human or rat Mas receptors was determined by the 384 well cAMP Dynamic2 Homogenous Time-Resolved Fluorescence (HTRF®) assay (CisBio Cat#62AM4PEB) following the manufacturer's protocol. Briefly, cells were plated at 30,000 or 1000 cells per well in 5 μL stimulation buffer (PBS containing 500 μM IBMX and 0.1% bovine serum albumin), 5 μL of Mas compounds diluted in PBS were added to each well and serial diluted cAMP standards were also added to corresponding wells at this step. For detecting […] activities, 10 μM forskolin was included with the compounds for a final concentration of 5 μM at the stimulation step. Following 1 h stimulation at room temperature, d2-labeled cAMP and anti-cAMP cryptate conjugate diluted in detection buffer (included in the kit) were added to cells sequentially at 5 μl per well. The plates were incubated further for 1 h at room temperature. Ratiometic measurements of fluorescence emission at 665 nm and 620 nm were obtained by Pherastar fluorometer (BMG Labtech) and cAMP levels in each well were calculated according to the standard curves on each plate. IC50 values were obtained by fitting data to a nonlinear curve-fitting program (GraphPad Software, Inc., La Jolla Calif.).

[2] = system: Male Sprague-Dawley rats; assay: Left kidney artery ischemia reperfusion injury model; assay type: in vivo, rat
Method: Rats were anesthetized with pentobarbital (70 mg/kg). Normal body temperature was maintained by placing the animals on heating pads until recovery from anesthesia. Following a midline abdominal incision, the left renal pedicle was localized and the renal artery and vein were dissected. An atraumatic microvascular clamp was placed, and the left renal artery was occluded for 45 minutes. After inspection for signs of ischemia, the wound was covered with PBS soaked cotton. After release of the clamp, restoration of blood-flow was inspected visually and the wound was closed with surgical staples and the animal was allowed to recover. 24 hours following the end of ischemia blood was collected and markers of kidney function, creatinine and blood urea nitrogen (BUN) were measured.
15 minutes prior to renal artery occlusion either vehicle (20% hydroxypropyl-β-cyclodextrin) or a loading dose of 6.26 mg/kg Mas inverse agonist (Compound 170) was administered i.v. followed by a i.v. maintenance dose of 1.64 mg/kg/hr lasting for 2 hours following removal of the renal artery clamp. A renoprotective positive control peptide, Atrial natriuretic peptide (ANP, 0.2 μg/kg/min), was administered by continuous i.v. infusion starting 15 minutes prior to renal artery occlusion and lasting for 2 hours following removal of the renal artery clamp, see FIG. 43 for protocol.

[3] = Mean arterial blood pressure in anesthetized rats (Example 4); assay type: in vivo, rat; conditions: low, medium and high dose i.v.; 25 min after starting dosing
Method: Adult rats were anesthetized with sodium pentobarbital (50 mg/kg i.p.) and placed in the supine position on a surgery frame with a heating pad (37° C.) beneath. Rats were tracheostomized and ventilated with a SAR-830 small-animal ventilator (Model 683, Harvard Apparatus) to provide room air at a tidal volume of 2.5 mL/stroke and at a rate of 70 stroke/min. Polyethylene catheters were placed in the right internal carotid artery and the external jugular vein for measurement of mean arterial blood pressure and infusion of drug or vehicle, respectively.
Animals were randomly divided into the following 4 groups: (1-3) low, medium, and high doses of Compound 170 administered by continuous i.v. infusion starting 30 min before coronary artery ligation (n=6 per dose), and (4) 20% HPBCD (vehicle, hydroxypropyl-β-cyclodextrin) administered by continuous i.v. infusion beginning 30 min before coronary artery ligation (n=6). All the rat hearts listed above were used for calculation of myocardial infarct size (see below). Mean arterial blood pressure was measured after stabilization and just prior to drug infusion (baseline) and again following 25 min of drug or vehicle infusion, before coronary artery ligation. […]

[4] = 6.26 mg/kg loading + 1.64 mg/kg/hr i.v., 45 minutes occlusion, blood 24 hours after ischemia

Compound | IC50 [1] [nM] | kidney function as measured by blood creatinine [2, 4] | kidney function as measured by blood urea nitrogen (BUN) [2, 4] | degree of renal protection ([2]; compared with ANP 0.2 μg/kg/min) | mean arterial blood pressure (MAP) compared to vehicle treatment [3]
COc1cc([N+](=O)[O-])ccc1S(=O)(=O)N1CC(CN2CCN(c3ccccn3)CC2)C(c2cccc(F)c2)C1 (centres unmarked) [AR234960] | 1710 ± 11 |  |  |  | 
NC(=O)[C@H](CO)NCc1ccc(C(=O)Nc2ccc(Cl)cc2N2CCN(CCC(F)(F)F)CC2)c(F)c1F [Compound 170, (S)-4-((1-Amino-3-hydroxy-1-oxopropan-2-ylamino)methyl)-N-(4-chloro-2-(4-(3,3,3-trifluoropropyl)piperazin-1-yl)phenyl)-2,3-difluorobenzamide] |  | improves kidney function | improves kidney function | at the same activity compared to ANP | no significant effect
